Values of other authors as cited in patent publication US20210388441A1, “PREDICTING CHRONIC ALLOGRAFT INJURY THROUGH ISCHEMIA-INDUCED DNA METHYLATION” (VIB VZW, priority 2017, published 2021).

System: macrophage infiltration in kidneys
Conditions: through a decrease of macrophage infiltration in for instance kidneys

For `CC(=O)C(C)CCC(=O)O` (stereo not shown) [ERG240], the inflammation is listed as “reduced inflammation”.
